Consider seven molecules from BindingDB's records for doi:10.1016/j.bioorg.2015.01.005 (Kurukshetra University, 2015).

Assay [1] has as its target T1, Cathepsin H (Capra hircus, UniProt A0A060INS8).
T1 sequence (A0A060INS8 whole entry): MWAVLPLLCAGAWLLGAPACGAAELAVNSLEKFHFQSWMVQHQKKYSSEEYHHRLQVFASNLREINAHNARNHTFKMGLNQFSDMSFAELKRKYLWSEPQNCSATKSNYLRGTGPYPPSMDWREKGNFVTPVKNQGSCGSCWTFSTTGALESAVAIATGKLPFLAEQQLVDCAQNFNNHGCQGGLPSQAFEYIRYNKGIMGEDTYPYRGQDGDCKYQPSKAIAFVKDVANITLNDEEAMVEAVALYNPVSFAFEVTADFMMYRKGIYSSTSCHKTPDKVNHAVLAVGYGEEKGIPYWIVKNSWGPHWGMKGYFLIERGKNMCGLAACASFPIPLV
The experiment in a line: Cathepsin Ezyme Assay. Conditions: pH 6.
Method: (§1) Cathepsin B and H were first activated in the presence of thiol activators at pH 6.0 and pH 7.0, respectively. Then, 15 µL of the enzyme solution was mixed with 940 µL of 0.1 M sodium phosphate buffer containing 1 mM EDTA separately, for 10 min at 37 °C. […] After 30 min, 25 µL of 100 mM substance stock solution was added to start the reaction.

In assay [2] the target is Cathepsin B (Capra hircus, UniProt H9B8T9). Description: Cathepsin Ezyme Assay. Particulars: pH 6.
Method: as §1

For orientation: Ki means a measure of affinity in units of concentration, obtained from inhibition or displacement. High values mean a looser hold on the target, low ones a stronger hold on the target.

Take `CN(C)c1ccc(C2NC(=O)c3ccccc3N2)cc1` (centres undefined) [2-(4-(Dimethylamino)phenyl)-2,3-dihydroquinazolin-4(1H)-one (1h)]: the inhibition constant Ki in assay [1] is 18.6 µM; in assay [2] it was 10.6 µM.
The matching figures for `O=C1NC(c2ccc([N+](=O)[O-])cc2)Nc2ccccc21` (centres undefined) [2-(4-Nitrophenyl)-2,3-dihydroquinazolin-4(1H)-one (1b)]: 10.4 µM and 1.57 µM.
Consider `Cc1ccc(C2NC(=O)c3ccccc3N2)cc1` (centres undefined) [2-(4-Methylphenyl)-2,3-dihydroquinazolin-4(1H)-one (1c)], for which the inhibitory constant (Ki) in assay [1] came to 2.5 µM; in assay [2], 52.6 µM.
The matching figures for `O=C1NC(c2ccc(Cl)cc2)Nc2ccccc21` (centres undefined) [2-(4-Chlorophenyl)-2,3-dihydroquinazolin-4(1H)-one (1e)]: 23.3 µM and 0.041 µM.
The like results for `COc1ccc(C2NC(=O)c3ccccc3N2)cc1` (centres undefined) [2-(4-Methoxyphenyl)-2,3-dihydroquinazolin-4(1H)-one (1d)] were, in that order, 56.8 µM and 2.81 µM.
As to `O=C1NC(c2ccc(F)cc2)Nc2ccccc21` (centres undefined) [2-(4-Fluorophenyl)-2,3-dihydroquinazolin-4(1H)-one (1f)], the Ki was 8.18 µM in assay [1] and 0.0064 µM in assay [2].
The matching figures for `O=C1NC(c2ccc(Br)cc2)Nc2ccccc21` (centres undefined): 52.6 µM and 32.5 µM.
